Measurements taken from ChEMBL document CHEMBL4840312, “Discovery of memantyl urea derivatives as potent soluble epoxide hydrolase inhibitors against lipopolysaccharide-induced sepsis” (Eur J Med Chem, 2021).

What was measured:
[1] = target: T1, Bifunctional epoxide hydrolase 2 (Homo sapiens, UniProt P34913)
T1 sequence (P34913 whole entry): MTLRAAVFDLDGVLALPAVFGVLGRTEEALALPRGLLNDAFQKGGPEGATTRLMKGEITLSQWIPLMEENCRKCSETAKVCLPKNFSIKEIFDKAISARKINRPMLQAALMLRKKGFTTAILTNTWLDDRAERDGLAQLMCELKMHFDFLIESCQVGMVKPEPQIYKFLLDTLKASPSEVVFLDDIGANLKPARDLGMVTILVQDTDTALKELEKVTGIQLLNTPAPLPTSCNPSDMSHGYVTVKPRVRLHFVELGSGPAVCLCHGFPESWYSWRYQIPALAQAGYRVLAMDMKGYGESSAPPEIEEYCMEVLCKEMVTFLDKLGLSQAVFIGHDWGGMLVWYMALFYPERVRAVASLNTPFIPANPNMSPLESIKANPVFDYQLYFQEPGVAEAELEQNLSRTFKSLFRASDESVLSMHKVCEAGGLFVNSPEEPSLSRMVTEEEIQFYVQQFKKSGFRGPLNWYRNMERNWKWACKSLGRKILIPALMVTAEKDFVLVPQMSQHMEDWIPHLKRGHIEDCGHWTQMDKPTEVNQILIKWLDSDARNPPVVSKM
Description: Inhibition of human recombinant sEH using PHOME as substrate measured after 10 mins by fluorescent based assay

[2] = target: T2, Bifunctional epoxide hydrolase 2 (Mus musculus, UniProt P34914)
T2 sequence (P34914 whole entry): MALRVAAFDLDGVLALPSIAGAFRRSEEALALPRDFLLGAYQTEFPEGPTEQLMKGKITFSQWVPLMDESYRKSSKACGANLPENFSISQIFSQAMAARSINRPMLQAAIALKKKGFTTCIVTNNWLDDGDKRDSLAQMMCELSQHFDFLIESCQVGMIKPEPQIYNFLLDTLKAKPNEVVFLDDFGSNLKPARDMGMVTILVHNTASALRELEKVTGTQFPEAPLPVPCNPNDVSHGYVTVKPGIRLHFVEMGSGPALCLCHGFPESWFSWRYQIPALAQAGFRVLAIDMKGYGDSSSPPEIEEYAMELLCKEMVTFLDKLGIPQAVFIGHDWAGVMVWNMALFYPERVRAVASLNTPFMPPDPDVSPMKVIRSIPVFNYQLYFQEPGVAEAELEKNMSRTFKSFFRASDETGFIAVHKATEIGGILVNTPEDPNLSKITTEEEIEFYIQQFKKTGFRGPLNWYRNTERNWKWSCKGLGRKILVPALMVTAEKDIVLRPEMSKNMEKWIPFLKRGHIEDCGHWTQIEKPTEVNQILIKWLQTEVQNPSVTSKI
Description: Inhibition of mouse recombinant sEH using PHOME as substrate measured after 10 mins by fluorescent based assay

[3] = Acute toxicity in ICR mouse assessed as body weight at 100 mg/kg, ip administered as single dose observed for 14 days; format: organism-based; conditions: in vivo, 336 h, time 14 day
Mus musculus [4] = assay: Effect on C57BL/6 mouse model of LPS induced sepsis assessed as survival rate in 24 hrs at 5 mg/kg, ip (reference value: 71.4%); format: functional; conditions: C57BL/6, ip
Mus musculus [5] = assay: Effect on C57BL/6 mouse model of LPS induced sepsis assessed as survival rate in 72 hrs at 5 mg/kg, ip (reference value: 28.6%); format: functional; conditions: C57BL/6, ip
[6] = Reversible toxicity in ICR mouse assessed as eye secretion at 100 mg/kg, ip administered as single dose observed for 14 days; format: organism-based; conditions: in vivo, 336 h, time 14 day
[7] = Cmax in Sprague-Dawley rat at 3 mg/kg, iv administered as single dose upto 24 hrs by LC-MS analysis; format: ADME, organism-based; parameters: route intravenous, dose 3 mg/kg, time <=24; conditions: in vivo
[8] = Cmax in Sprague-Dawley rat at 30 mg/kg, po administered as single dose upto 24 hrs by LC-MS analysis; format: ADME, organism-based; parameters: route oral, dose 30 mg/kg, time <=24; conditions: in vivo
[9] = Clearance in Sprague-Dawley rat at 3 mg/kg, iv administered as single dose upto 24 hrs by LC-MS analysis; format: ADME, organism-based; conditions: in vivo
[10] = Clearance in Sprague-Dawley rat at 30 mg/kg, po administered as single dose upto 24 hrs by LC-MS analysis; format: ADME, organism-based; conditions: in vivo
[11] = Volume of distribution in Sprague-Dawley rat at 3 mg/kg, iv administered as single dose upto 24 hrs by LC-MS analysis; format: ADME, organism-based; conditions: in vivo
[12] = Volume of distribution in Sprague-Dawley rat at 30 mg/kg, po administered as single dose upto 24 hrs by LC-MS analysis; format: ADME, organism-based; conditions: in vivo
[13] = AUC (0 to 24 hrs) in Sprague-Dawley rat at 3 mg/kg, iv administered as single dose upto 24 hrs by LC-MS analysis; format: ADME, organism-based; parameters: route intravenous, dose 3 mg/kg, time <=24; conditions: in vivo
[14] = AUC (0 to 24 hrs) in Sprague-Dawley rat at 30 mg/kg, po administered as single dose upto 24 hrs by LC-MS analysis; format: ADME, organism-based; parameters: route oral, dose 30 mg/kg, time <=24; conditions: in vivo
[15] = AUC (0 to infinity) in Sprague-Dawley rat at 30 mg/kg, po administered as single dose upto 24 hrs by LC-MS analysis; format: ADME, organism-based; parameters: route oral, dose 30 mg/kg, time <=24; conditions: in vivo
[16] = Microsomal stability in human liver microsomes assessed as substrate remaining in presence of NADPH measured after 5 mins by LC-MS/MS analysis
[17] = Microsomal stability in human liver microsomes assessed as substrate remaining in presence of NADPH measured after 10 mins by LC-MS/MS analysis
[18] = Microsomal stability in human liver microsomes assessed as substrate remaining in presence of NADPH measured after 20 mins by LC-MS/MS analysis
[19] = Microsomal stability in human liver microsomes assessed as substrate remaining in presence of NADPH measured after 30 mins by LC-MS/MS analysis; conditions: 0.5 h
[20] = Microsomal stability in human liver microsomes assessed as substrate remaining in presence of NADPH measured after 60 mins by LC-MS/MS analysis; conditions: 1 h

Compound O=C(Nc1ccc(C(=O)NC2CCCCC2)cc1)NC1C2CC3CC1CC(O)(C3)C2 (centres undefined) has an IC50 [1] of 493 nM and an IC50 [2] of 463 nM.
CC(NC(=O)Nc1ccc(C(=O)NC2CCCCC2)cc1)C12CC3CC(CC(C3)C1)C2 (centres undefined) gave an IC50 [1] of 217 nM and an IC50 [2] of 13.7 nM.
For CC(C)CNC(=O)CCCC(=O)NC1C2CC3CC1CC(O)(C3)C2 (centres undefined), the IC50 [1] was 41.6 nM and the IC50 [2] was 106 nM.
CC12CC3CC(C)(C1)CC(NC(=O)/C=C/C(=O)NC1CCCCC1)(C3)C2 showed an IC50 [1] of 24400 nM and an IC50 [2] of 5520 nM.
Work on CC12CC3CC(C)(C1)CC(NC(=O)CCCC(=O)N1CCCCC1)(C3)C2 yielded an IC50 [1] of 5930 nM and an IC50 [2] of 5840 nM.
CC(C)CNC(=O)/C=C/C(=O)NC12CC3CC(C)(CC(C)(C3)C1)C2 gave an IC50 [1] of 9620 nM and an IC50 [2] of 21100 nM.
With CC(NC(=O)Nc1ccc(C(=O)N2CCCCC2)cc1)C12CC3CC(CC(C3)C1)C2 (centres undefined) the IC50 [1] was 3.9 nM and the IC50 [2] was 2.4 nM.
CC(C)CNC(=O)CCCC(=O)NC1C2CC3CC(C2)CC1C3 (centres undefined) gave an IC50 [1] of 3580 nM and an IC50 [2] of 2270 nM.
For CC(C)CNC(=O)c1ccc(NC(=O)NC2C3CC4CC2CC(O)(C4)C3)cc1 (centres undefined), the IC50 [1] was 249 nM and the IC50 [2] was 2350 nM.
For CC12CC3CC(C)(C1)CC(NC(=O)CCC(=O)NC1CCCCC1)(C3)C2, the IC50 [1] was 7890 nM and the IC50 [2] was 180 nM.
CC(C)CNC(=O)CCCC(=O)NC(C)C12CC3CC(CC(C3)C1)C2 (centres undefined) gave an IC50 [1] of 7320 nM and an IC50 [2] of 694 nM.
With CC12CC3CC(C)(C1)CC(NC(=O)Nc1ccc(C(=O)NC4CCCCC4)cc1)(C3)C2 the IC50 [1] was 2.3 nM, the Activity [3] was “Non-Toxic” and the IC50 [2] was 0.4 nM.
With CC12CC3CC(C)(C1)CC(NC(=O)c1ccc(C(=O)N4CCCCC4)cc1)(C3)C2 the IC50 [1] was 26400 nM and the IC50 [2] was 60700 nM.
C[C@@H]1C[C@H]2[C@@H]3CCC4=CC(=O)C=C[C@]4(C)[C@@]3(F)[C@@H](O)C[C@]2(C)[C@@]1(O)C(=O)CO [DEXAMETHASONE] showed a survival at 5 mg/kg (Mus musculus [4]) of 100% and a survival at 5 mg/kg (Mus musculus [5]) of 100%.
In the case of O=C(Nc1ccc(C(=O)N2CCCCC2)cc1)NC1C2CC3CC1CC(O)(C3)C2 (centres undefined), the IC50 [1] is reported as 217 nM and the IC50 [2] is reported as 497 nM.
CC12CC3CC(C)(C1)CC(NC(=O)c1ccc(C(=O)NC4CCCCC4)cc1)(C3)C2 showed an IC50 [1] of 6290 nM and an IC50 [2] of 1020 nM.
For CC(C)CNC(=O)c1ccc(NC(=O)NC2C3CC4CC(C3)CC2C4)cc1 (centres undefined), the IC50 [1] was 0.9 nM, the Activity [3] was “Non-Toxic” and the Activity [6] was “Toxic”. It also gave an IC50 [2] of 0.4 nM.
In the case of CC(C)CNC(=O)c1ccc(C(=O)NC23CC4CC(C)(CC(C)(C4)C2)C3)cc1, the IC50 [1] is reported as > 100000 nM and the IC50 [2] is reported as 6540 nM.
In the case of O=C(Nc1ccc(C(=O)N2CCCCC2)cc1)NC12CC3CC(CC(O)(C3)C1)C2, the IC50 [1] is reported as 120 nM and the IC50 [2] is reported as 88.8 nM.
For CC(C)CNC(=O)CCC(=O)NC(C)C12CC3CC(CC(C3)C1)C2 (centres undefined), the IC50 [1] was 50.8 nM and the IC50 [2] was 43.5 nM.
With O=C(Nc1ccc(C(=O)NC2CCCCC2)cc1)NC12CC3CC(CC(O)(C3)C1)C2 the IC50 [1] was 796 nM and the IC50 [2] was 94.2 nM.
CC12CC3CC(C)(C1)CC(NC(=O)CCC(=O)N1CCCCC1)(C3)C2 showed an IC50 [1] of 2470 nM and an IC50 [2] of 21700 nM.
In the case of O=C(Nc1ccc(C(=O)NC2CCCCC2)cc1)NC1C2CC3CC(C2)CC1C3 (centres undefined), the IC50 [1] is reported as 1.4 nM, the Activity [6] is reported as “Toxic” and the IC50 [2] is reported as 0.4 nM.
Compound CC(C)CNC(=O)c1ccc(NC(=O)NC(C)C23CC4CC(CC(C4)C2)C3)cc1 (centres undefined) has an IC50 [1] of 59.8 nM and an IC50 [2] of 28.8 nM.
CC12CC3CC(C)(C1)CC(NC(=O)Nc1ccc(C(=O)N4CCCCC4)cc1)(C3)C2 gave a Cmax [7] of 3640 nM, a Cmax [8] of 330 nM and a CLH [9] of 71.7 mL/min/kg. For the same compound, the CLH [10] was 4496.5 mL/min/kg, the Vd [11] was 7.83 L/kg and the Vd [12] was 1097.8 L/kg. The AUC(0-t) [13] was 1.83 µM·h, the AUC(0-t) [14] was 1.3 µM·h and the AUC [15] was 1.305 µM·h. The Activity [6] was “Toxic”, the residual activity [16] was 58.9% and the residual activity [17] was 43%. It also gave a residual activity [18] of 26.4%, a residual activity [19] of 17.1% and a residual activity [20] of 12.4%.
CC(C)CNC(=O)c1ccc(NC(=O)NC23CC4CC(CC(O)(C4)C2)C3)cc1 gave an IC50 [1] of 949 nM and an IC50 [2] of 291 nM.
In the case of CC(=O)N1CCC(NC(=O)NC23CC4CC(CC(C4)C2)C3)CC1 [AR9281], the Activity [6] is reported as “Toxic”.
CC12CC3CC(C)(C1)CC(NC(=O)CCCC(=O)NC1CCCCC1)(C3)C2 gave an IC50 [1] of 1590 nM and an IC50 [2] of 8.3 nM.
CC(C)CNC(=O)CCCC(=O)NC12CC3CC(C)(CC(C)(C3)C1)C2 showed an IC50 [1] of 6230 nM and an IC50 [2] of 225 nM.
Compound CC(C)CNC(=O)CCC(=O)NC12CC3CC(C)(CC(C)(C3)C1)C2 has an IC50 [1] of 18900 nM and an IC50 [2] of 4130 nM.
For CC(C)CNC(=O)c1ccc(NC(=O)NC23CC4CC(C)(CC(C)(C4)C2)C3)cc1, the IC50 [1] was 0.7 nM, the Activity [3] was “Non-Toxic” and the IC50 [2] was 0.4 nM.
Compound CC12CC3CC(C)(C1)CC(NC(=O)/C=C\C(=O)N1CCCCC1)(C3)C2 has an IC50 [1] of 21500 nM and an IC50 [2] of 81200 nM.
With O=C(Nc1ccc(C(=O)N2CCCCC2)cc1)NC1C2CC3CC(C2)CC1C3 (centres undefined) the IC50 [1] was 0.4 nM, the Activity [3] was “Non-Toxic” and the IC50 [2] was 0.4 nM.
